{"source": "patent US10131679B2", "about": "“Substituted dihydropyrrolopyrazole compound” (UBE INDUSTRIES, LTD., priority 2014, dated 2018)", "key": {"[1]": {"test_system": "IL-17 production in human PBMC-derived T cells", "experiment": "Human PBMC various-stimulant cocktail-induced IL-17 production inhibition test", "type": "cell-based", "settings": "120 h; human T-cell suspension from PBMC, cocktail of various stimulants, incubation for 5 days, ELISA", "from_the_text": "Human PBMC Various-Stimulant Cocktail-Induced IL-17 Production Inhibition Test\nPBMC was separated and collected by using Ficoll-Paque (17-1440-02 manufactured by GE Healthcare Japan Corp.) from blood collected from healthy human adult in the presence of heparin. The collected PBMC was further cultured in a flask for a certain time, and then, non-adherent cells in the supernatant were collected and used as a T-cell suspension. RPMI1640 medium (manufactured by GIBCO/Thermo Fisher Scientific, Inc., REF. 11875), which is containing 10% FBS (manufactured by GIBCO/Thermo Fisher Scientific, Inc., REF. 10082), 1% penicillin/streptomycin/amphotericin B (manufactured by GIBCO/Thermo Fisher Scientific, Inc., REF. 15240-096), 1% nonessential amino acids (manufactured by GIBCO/Thermo Fisher Scientific, Inc., REF. 11140-050), and 1% pyruvic acid (manufactured by GIBCO/Thermo Fisher Scientific, Inc., REF. 11140) and containing a test compound dissolved in DMSO, 2 μg/mL (final concentration) CD28 antibody (manufactured by BioLegend, Inc., Cat. No. 302914), 10 μg/mL (final concentration) human IFN-γ antibody (manufactured by BD Biosciences, Cat. No. 554698), 10 μg/mL (final concentration) human IL-4 antibody (manufactured by BD Biosciences, Cat. No. 554481), 20 ng/mL (final concentration) human IL-6 (manufactured by BioLegend, Inc., Cat. No. 570802), 10 ng/mL (final concentration) human IL-23 (manufactured by BioLegend, Inc., Cat. No. 574102), 10 ng/mL (final concentration) human IL-1(3 (manufactured by PeproTech Inc., Cat. No. 200-01B), and 10 ng/mL (final concentration) human TGF-13 (manufactured by BioLegend, Inc., Cat. No. 580702), was added at 100 μL/well to T cell Activation Plate Anti-Human CD3 96-well plate (manufactured by Corning Inc., REF. 354725). Subsequently, 100 μL of a T-cell suspension adjusted to 2×10^5 cells/mL was added to each well (final DMSO concentration: 0.1%). Only DMSO was added to wells in the absence of the test compound. After incubation for 5 days in a carbon dioxide incubator, the culture supernatant was collected and stored at −20° C. until IL-17 content measurement.\nIn the IL-17 content measurement in the culture supernatant, a sandwich ELISA kit (Quantikine Human IL-17, manufactured by R&D Systems, Inc.) was used. The IL-17 content of each sample was calculated from the calibration curve of Standard IL-17 included in the kit. When the amount of IL-17 produced by the cocktail of various stimulants in the case of the addition of only DMSO was defined as 100%, the rate of inhibition of IL-17 production at each concentration of the test compound was calculated. The concentration of the test compound necessary for inhibiting 50% of IL-17 production (IC50 value) was calculated from the concentration of the added test compound and the rate of inhibition of IL-17 production by the test compound by using EXSUS (version 8.0.0 or version 8.0.1, manufactured by CAC Exicare Corp.)."}, "[2]": {"test_system": "IL-2 production in human peripheral blood mononuclear cell (PBMC)", "experiment": "Human PBMC CD3/CD28-induced IL-2 production inhibition test", "type": "cell-based", "settings": "48 h, CD3/CD28 stimulation, incubation for 2 days, ELISA", "from_the_text": "Human Peripheral Blood Mononuclear Cell (PBMC) CD3/CD28-Induced IL-2 Production Inhibition Test\nPBMC was separated and collected by using Ficoll-Paque (17-1440-02 manufactured by GE Healthcare Japan Corp.) from blood collected from healthy human adult in the presence of heparin. RPMI1640 medium (manufactured by GIBCO/Thermo Fisher Scientific, Inc., REF. 11875) containing 10% FBS (manufactured by GIBCO/Thermo Fisher Scientific, Inc. REF. 10082) and containing a test compound dissolved in DMSO and 2 μg/mL anti-hCD28 (manufactured by R&D Systems, Inc., Cat. No. MAB342) was added at 100 μL/well to T cell Activation Plate Anti-Human CD3 96-well plate (manufactured by Corning Inc., REF. 354725), and subsequently, a PBMC suspension adjusted such that the number of cells was 2×10^6 cells/mL was added at 100 μL/well (final DMSO concentration: 0.1%). A RPMI1640 medium containing 10% FBS and containing 0.1% DMSO and 2 μg/mL anti-hCD28 was similarly added to wells not supplemented with the test compound. After incubation for 2 days in a carbon dioxide incubator, the culture supernatant was collected. The collected culture supernatant was stored at −20° C. until IL-2 content measurement.\nIn the measurement of IL-2 content in the culture supernatant, a sandwich ELISA kit Quantikine Human IL-2 (manufactured by R&D Systems, Inc., Cat. No. S2050) was used. The IL-2 content of each sample was calculated from the calibration curve of Standard IL-2 included in the kit. When the amount of IL-2 produced by CD3/CD28 stimulation in the case of the addition of only DMSO was defined as 100%, the rate of inhibition of IL-2 production at each concentration of the test compound was calculated. A test compound concentration inhibiting 50% of IL-2 production was calculated as an IC50 value (nM) from the concentration of the added test compound and the rate of inhibition of IL-2 production by the test compound by using EXSUS (version 8.0.0 or version 8.0.1, manufactured by CAC Exicare Corp.)."}}, "data": [{"smiles": "CO[C@@H](C(=O)N1Cc2c(NC(=O)C3([Si](C)(C)C)CCC3)n[nH]c2C1(C)C)c1ccccc1", "note": "[IV-1175, (R)—N-[5-(2-Methoxy-2-phenylacetyl)-6,6-dimethyl-1,4,5,6-tetrahydropyrrolo[3,4-c]pyrazol-3-yl]-1-(trimethylsilyl)cyclobutanecarboxamide]", "values": [{"measurement": "IC50", "setting": "[1]", "value": "≤ 50", "unit": "nM"}, {"measurement": "IC50", "setting": "[2]", "value": "≤ 50", "unit": "nM"}]}, {"smiles": "CC(C)(CO)C(NC(=O)N1Cc2c(NC(=O)C3([Si](C)(C)C)CCC3)n[nH]c2C1(C)C)c1ccccc1", "note": "(racemic) [IV-354, N-(3-Hydroxy-2,2-dimethyl-1-phenylpropyl)-6,6-dimethyl-3-[1-(trimethylsilyl)cyclobutanecarboxamido]-4,6-dihydropyrrolo[3,4-c]pyrazole-5(1H)-carboxamide]", "values": [{"measurement": "IC50", "setting": "[1]", "value": "≤ 50", "unit": "nM"}, {"measurement": "IC50", "setting": "[2]", "value": "≤ 50", "unit": "nM"}]}, {"smiles": "CC[Si](C)(C)C1(C(=O)Nc2n[nH]c3c2CN(C(=O)[C@H](OC)c2ccccc2)C3(C)C)CCC1", "note": "[IV-1178, (R)-1-(Ethyldimethylsilyl)-N-[5-(2-methoxy-2-phenylacetyl)-6,6-dimethyl-1,4,5,6-tetrahydropyrrolo[3,4-c]pyrazol-3-yl] cyclobutanecarboxamide]", "values": [{"measurement": "IC50", "setting": "[1]", "value": "≤ 50", "unit": "nM"}, {"measurement": "IC50", "setting": "[2]", "value": "≤ 50", "unit": "nM"}]}, {"smiles": "CC1(C)c2[nH]nc(NC(=O)C3([Si](C)(C)C)CCC3)c2CN1C(=O)[C@H](OC(F)F)c1ccccc1", "note": "[IV-1180, (R)—N-{5-[2-(Difluoromethoxy)-2-phenylacetyl]-6,6-dimethyl-1,4,5,6-tetrahydropyrrolo[3,4-c]pyrazol-3-yl}-1-(trimethylsilyl)cyclobutanecarboxamide]", "values": [{"measurement": "IC50", "setting": "[1]", "value": "≤ 50", "unit": "nM"}, {"measurement": "IC50", "setting": "[2]", "value": "≤ 50", "unit": "nM"}]}, {"smiles": "CCO[C@@H](C(=O)N1Cc2c(NC(=O)C3([Si](C)(C)C)CCC3)n[nH]c2C1(C)C)c1ccccc1", "note": "[IV-1188, (R)—N-[5-(2-Ethoxy-2-phenylacetyl)-6,6-dimethyl-1,4,5,6-tetrahydropyrrolo[3,4-c]pyrazol-3-yl]-1-(trimethylsilyl)cyclobutanecarboxamide]", "values": [{"measurement": "IC50", "setting": "[1]", "value": "≤ 50", "unit": "nM"}, {"measurement": "IC50", "setting": "[2]", "value": "≤ 50", "unit": "nM"}]}, {"smiles": "CC(C)(O)C[C@@H](NC(=O)N1Cc2c(NC(=O)C3([Si](C)(C)C)CCC3)n[nH]c2C1(C)C)c1ccccc1", "note": "[IV-299, (R)—N-(3-Hydroxy-3-methyl-1-phenylbutyl)-6,6-dimethyl-3-[1-(trimethylsilyl)cyclobutanecarboxamido]-4,6-dihydropyrrolo[3,4-c]pyrazole-5(1H)-carboxamide]", "values": [{"measurement": "IC50", "setting": "[1]", "value": "≤ 50", "unit": "nM"}, {"measurement": "IC50", "setting": "[2]", "value": "≤ 50", "unit": "nM"}]}, {"smiles": "CC(C)(O)C[C@@H](NC(=O)N1Cc2c(NC(=O)C3([Si](C)(C)C)CCC3)n[nH]c2C1(C)C)c1cccc(F)c1", "note": "[IV-911, (R)—N-[1-(3-Fluorophenyl)-3-hydroxy-3-methylbutyl]-6,6-dimethyl-3-[1-(trimethylsilyl)cyclobutanecarboxamido]-4,6-dihydropyrrolo[3,4-c]pyrazole-5(1H)-carboxamide]", "values": [{"measurement": "IC50", "setting": "[1]", "value": "≤ 50", "unit": "nM"}]}, {"smiles": "CC1(C)c2[nH]nc(NC(=O)C3([Si](C)(C)C)CCC3)c2CN1C(=O)N[C@H](CC1(O)CC1)c1ccccc1", "note": "[IV-743, (R)—N-[2-(1-Hydroxycyclopropyl)-1-phenylethyl]-6,6-dimethyl-3-[1-(trimethylsilyl)cyclobutanecarboxamido]-4,6-dihydropyrrolo[3,4-c]pyrazole-5(1H)-carboxamide]", "values": [{"measurement": "IC50", "setting": "[1]", "value": "≤ 50", "unit": "nM"}]}, {"smiles": "CC(C)(CO)C(NC(=O)N1Cc2c(NC(=O)C3([Si](C)(C)C)CCC3)n[nH]c2C1(C)C)c1cccc(F)c1", "note": "(stereo not drawn) [IV-918, N-[1-(3-Fluorophenyl)-3-hydroxy-2,2-dimethylpropyl]-6,6-dimethyl-3-[1-(trimethylsilyl)cyclobutanecarboxamido]-4,6-dihydropyrrolo[3,4-c]pyrazole-5(1H)-carboxamide]", "values": [{"measurement": "IC50", "setting": "[1]", "value": "≤ 50", "unit": "nM"}]}, {"smiles": "CCCO[C@@H](C(=O)N1Cc2c(NC(=O)C3([Si](C)(C)C)CCC3)n[nH]c2C1(C)C)c1ccccc1", "note": "[IV-1196, (R)—N-[6,6-Dimethyl-5-(2-phenyl-2-propoxyacetyl)-1,4,5,6-tetrahydropyrrolo[3,4-c]pyrazol-3-yl]-1-(trimethylsilyl)cyclobutanecarboxamide]", "values": [{"measurement": "IC50", "setting": "[1]", "value": "≤ 50", "unit": "nM"}]}, {"smiles": "CC(C)(O)C[C@@H](NC(=O)N1Cc2c(NC(=O)C3([Si](C)(C)C)CCC3)n[nH]c2C1(C)C)c1ccc(F)cc1", "note": "[IV-939, (R)—N-[1-(4-Fluorophenyl)-3-hydroxy-3-methylbutyl]-6,6-dimethyl-3-[1-(trimethylsilyl)cyclobutanecarboxamido]-4,6-dihydropyrrolo[3,4-c]pyrazole-5(1H)-carboxamide]", "values": [{"measurement": "IC50", "setting": "[1]", "value": "≤ 50", "unit": "nM"}]}, {"smiles": "CC(C)O[C@@H](C(=O)N1Cc2c(NC(=O)C3([Si](C)(C)C)CCC3)n[nH]c2C1(C)C)c1ccccc1", "note": "[IV-1204, (R)—N-[5-(2-Isopropoxy-2-phenylacetyl)-6,6-dimethyl-1,4,5,6-tetrahydropyrrolo[3,4-c]pyrazol-3-yl]-1-(trimethylsilyl)cyclobutanecarboxamide]", "values": [{"measurement": "IC50", "setting": "[1]", "value": "≤ 50", "unit": "nM"}]}]}
